From patent US8629239B2, “Methylocystis strain SB2 materials and methods” (Iowa State University Research Foundation, Inc., priority 2010, dated 2014)

How the values were obtained:
Methylocystis strain SB2 [1] = experiment: Nitrogen source utilization by strain SB2 with methane as carbon source; format: cell-based; details: methane as the carbon source
Method: Many nitrogen sources were tested with methane as the carbon source: nitrate (as potassium nitrate), ammonia (as ammonium chloride), L-alanine, L-serine, L-isoluecine, L-proline, L-methionine, L-glutamine, L-asparagine, L-lysine, L-glycine, L-histidine, and L-arginine. […] The presence of nifH was confirmed using PCR using specific primers for nifH (Auman, et al., 2001; Zehr & McReynolds, 1989).

Methylocystis strain SB2 [2] = experiment: Growth of Methylocystis strain SB2 on carbon sources; format: cell-based; details: for growth on substrate as carbon source: substrates 0.05%, methanol 0.01-1% (v/v), acetate 0.01-0.5% (w/v), ethanol 0.05-1% (v/v); for OD600 reached (final / max OD600) / growth rate: NMS medium, 10 μM copper, 30° C.; for growth rate: exponential kinetics
Method: Methylocystis strain SB2 was incubated in 50 ml of NMS medium in 250 ml flask supplemented with 10 μM of copper as CuCl2. The flasks were incubated at 30° C. with shaking at 250 rpm. Cell growth was monitored by measuring OD600 using a Spectronic-20 (Milton Roy Company, USA).
Growth of strain SB2 on Alternative Carbon Sources: Growth on methanol (0.05% v/v) and methylamine, glucose, fructose, sucrose, galactose, xylose, arabinose, and maltose (all at a concentration of 0.05% w/v) was tested, as were the organic acids formate, pyruvate, succinate, malate, citrate and oxalate (all added as sodium salts at a concentration of 0.05% w/v).
At this pH, 99% of the added acetate exists as the dissociated form. It is believed that undissociated acetate is transferred across the cell membrane, thus the proton motive force is dissipated to transport acetate into the cell (Axe and Bailey, 1995), which inhibits microbial growth.

[3] = dimensionless, at 30° C.; cited from earlier work
Methylocystis strain SB2 [4] = experiment: Degradation of chlorinated hydrocarbons by Methylocystis strain SB2 grown on ethanol or methane; format: cell-based; details: individual chlorinated hydrocarbons
Method: The ability of Methylocystis strain SB2 to degrade chlorinated hydrocarbon, including trichloroethylene (TCE), trans-dichloroethylene (t-DCE), vinyl chloride (VC), 1,1,1-trichloroethane (1,1,1-TCA), dichloromethane (DCM), and chloroform (CF), was compared when Methylocystis strain SB2 was grown on ethanol relative to when it was grown with methane.

[5] = Abiotic loss of chlorinated ethenes from serum vials with sterile NMS medium; format: physicochemical; details: 40 μM each in 5 ml sterile NMS medium; 216 hours
Method: Growth and degradation of chlorinated solvents. The growth of Methylocystis strain SB2 and degradation of the mixture of TCE, t-DCE, and VC were measured in three different conditions: methane, acetate, and acetate with acetylene (a selective inhibitor of both MMOs) (Prior and Dalton, 1985). The method used previously by Lee et al. (2006) and Yoon and Semrau (2008) was slightly modified for these assays. For all three growth conditions, Methylocystis strain SB2 was initially grown on methane to the mid-exponential phase (OD600 nm of 0.3-0.4). This cell suspension was flushed with compressed air as described above to remove residual methane and diluted to OD600<0.03 in 50 ml of fresh media in 250 ml Erlenmeyer flask. For growth on methane, methane was added to the headspace to an air:methane ratio of 1:1 and the cells were grown back to an OD600 of ca. 0.06. After the flask was flushed with compressed air as described earlier, five milliliter aliquots were transferred to serum vials specially fabricated to measure growth at OD600 over time as described earlier (Lee et al., 2006). Teflon-coated butyl-rubber stoppers (National Scientific Co., Duluth, Ga.) were used to seal the serum vials. After the serum vials were securely sealed, 5 ml of the air in headspace was replaced with 5 ml of methane to ensure sufficient methane for growth. For growth on acetate, 1 mM of sodium acetate (Im et al., 2010) instead of methane was added to the diluted cell suspension in 250-ml Erlenmeyer flasks. […] The growth of Methylocystis strain SB2 was monitored until the cell growth was no longer observed. The initial and final concentration of TCE, t-DCE, and VC were measured with HP5890 Series II gas chromatograph equipped with a 75 m DB-624 column with 0.53 mm internal diameter (J&W Scientific Co.). […] TCE and t-DCE were detected with an electron capture detector (ECD) with injector, oven, and detector temperatures set to 160, 120, and 250° C., respectively. VC was detected with a flame ionization detector (FID) with injector, oven, and detector temperatures set to 140, 120, and 250° C., respectively.

Methylocystis strain SB2 [6] = experiment: Degradation of chlorinated ethenes by Methylocystis strain SB2 grown on methane or acetate; format: cell-based; details: SB2 grown on CH3COOH + C2H2 (acetylene); 40 μM each of TCE, t-DCE, and VC; 216 hours
Method: Saturated stock solutions were prepared for TCE and t-DCE as described by Chang and Alvarez-Cohen (1996). Hamilton 1700 series gas-tight syringes (Hamilton, Reno, Nev.) were used to take aliquots from the stock solutions. Gaseous compounds, i.e., methane and VC, were transferred to gas bags before use. Aliquots were taken with Precision Lok gas-tight syringes purchased from Precision Sampling Corp (Baton Rouge, La.). The amount of chlorinated solvents to be added was calculated considering dimensionless Henry's constants at 30° C. […]
The method used previously by Lee et al. (2006) and Yoon and Semrau (2008) was slightly modified for these assays. […] The growth of Methylocystis strain SB2 was monitored until the cell growth was no longer observed. The initial and final concentration of TCE, t-DCE, and VC were measured with HP5890 Series II gas chromatograph equipped with a 75 m DB-624 column with 0.53 mm internal diameter (J&W Scientific Co.). […] TCE and t-DCE were detected with an electron capture detector (ECD) with injector, oven, and detector temperatures set to 160, 120, and 250° C., respectively. VC was detected with a flame ionization detector (FID) with injector, oven, and detector temperatures set to 140, 120, and 250° C., respectively.

[7] = test system: Methylosinus trichosporium OB3b expressing pMMO; details: 50 μM each of VC, t-DCE, and TCE; 110 hours of growth on methane; Lee et al., 2006; cited from earlier work
Methylocystis strain SB2 [8] = experiment: Growth yield and carbon conversion efficiency, Methylocystis strain SB2; format: cell-based; details: NMS, 10 μM copper, standard error in parentheses
Method: For Table 1, the molar growth yield (g dry cell▪(mol substrate^−1)) and the efficiency of carbon conversion to cell material (g cell carbon▪(g substrate carbon)^−1) were determined in triplicate 5 ml of NMS medium supplemented with 10 μM of copper as CuCl2 using specially constructed 32.5 ml vials containing a CH4/air mixture (1:2 ratio in the headspace), or 0.10% (w/v) of sodium acetate as a sole carbon source. CH4 and acetate concentrations were measured using gas chromatography equipped with a FID (HP 5890 Series II) and ion chromatography (Dionex DX100, Sunnyvale, Calif.), respectively. Cell growth was monitored by measuring OD600 using a Spectronic-20 spectrometer (Milton Roy Company, USA). Turbidity was correlated to protein concentration using the Bio-Rad Protein Assay (Bio-Rad Laboratories, Richmond, Calif.) with bovine serum albumin (BSA) as the standard following manufacturer's instructions. To estimate the carbon content of biomass it was assumed that dry biomass was 50% protein, and C4H8O2N was the biomass elemental composition (Leak and Dalton, 1986).

[9] = test system: Methylocystis echinoides IMET 10491T; details: growth on acetate; Belova et al., 2010; cited from earlier work
Methylocapsa aurea KYGT = details: growth on acetate; cited from earlier work
Methylocystis heyeri H2T = details: growth on acetate; Belova et al., 2010; cited from earlier work
Methylocystis strain H2s = details: growth on acetate; Belova et al., 2010; cited from earlier work
[10] = test system: Methylocella silvestris BL2; details: Dedysh, et al. (2005); cited from earlier work
Methylocystis strain SB2 [11] = experiment: Growth of Methylocystis strain SB2 in the presence of chlorinated ethenes; format: cell-based; details: grown on methane in the absence of chlorinated ethenes
Method: Methylocystis strain SB2 was initially grown on methane (1:1 methane-to-air ratio) to the mid-exponential phase (OD600 of 0.3-0.4 as measured using a Spectronic 20 spectrometer (Milton Roy Company, USA)). […] The cultures were then diluted to an OD600 of 0.06 with fresh NMS medium. Five ml aliquots were added to serum vials specially fabricated to measure growth as OD600 over time and respective growth substrates were added. For addition of methane, 5 ml of headspace was replaced with >99.99% methane after sealing the vials for a final concentration of 15% v/v in the headspace. […] Growth was monitored by measuring absorbance at 600 nm (OD600).
For all three growth conditions, Methylocystis strain SB2 was initially grown on methane to the mid-exponential phase (OD600 nm of 0.3-0.4). This cell suspension was flushed with compressed air as described above to remove residual methane and diluted to OD600<0.03 in 50 ml of fresh media in 250 ml Erlenmeyer flask. For growth on methane, methane was added to the headspace to an air:methane ratio of 1:1 and the cells were grown back to an OD600 of ca. 0.06. […] The growth of Methylocystis strain SB2 was monitored until the cell growth was no longer observed.

With `O=[N+]([O-])O` [nitrate] the “utilization as nitrogen source” value (Methylocystis strain SB2 [1]) was “able to utilize”.
In the case of `CO` [methanol], the “growth on substrate as carbon source” value (Methylocystis strain SB2 [2]) is reported as “no growth”.
In the case of `CC(Cl)(Cl)Cl` [1,1,1-TCA, 1,1,1-trichloroethane], the “Henry's constants” value [3] is listed as 0.804, the “degradation by strain SB2 grown on ethanol” value (shortened to “degradation … on ethanol”) (Methylocystis strain SB2 [4]) is listed as “degraded” and the “degradation by strain SB2 grown on methane” value (“degradation … on methane” for short) (Methylocystis strain SB2 [4]) is listed as “degraded”.
In the case of `ClC=C(Cl)Cl` [TCE, trichloroethylene], the “Abiotic loss, % (range of duplicate samples)” value (“Abiotic loss, %” below) [5] is given as 5.2%, the “Henry's constants” value [3] is given as 0.458 and the “degradation … on ethanol” value (Methylocystis strain SB2 [4]) is given as “degraded”. The “degradation … on methane” value (Methylocystis strain SB2 [4]) was “degraded”, the “% Chlorinated ethene degraded (range of duplicate samples)” value (Methylocystis strain SB2 [6]) was 3.3% and the “% degraded” value [7] was 35%.
With `CC[C@H](C)[C@H](N)C(=O)O` [L-isoleucine] the “utilization as nitrogen source” value (Methylocystis strain SB2 [1]) was “able to utilize”.
In the case of `CC(=O)O` [acetate], the “Efficiency of carbon conversion” value (Methylocystis strain SB2 [8]) is given as 22.1 (±0.2) %, the Growth yield (Methylocystis strain SB2 [8]) is given as 12.0 (±0.13) g cell dry weight ▪(mol substrate^−1 and the “max OD410” value [9] is given as 0.09. For the same compound, the “OD600 reached (final / max OD600)” value (Methylocystis strain SB2 [2]) was 0.26, the “growth on substrate as carbon source” value (Methylocystis strain SB2 [2]) was “grew” and the “max OD600” value (Methylocapsa aurea KYGT) was 0.3. For the same compound, the “max OD410” value (Methylocystis heyeri H2T) was 0.14, the “max OD410” value (Methylocystis strain H2s) was about 0.23 and the “Efficiency of carbon conversion” value [10] was 40.1 (±2.43) %. For the same compound, the Growth yield [10] was 20.5 (±1.24) g cell dry weight ▪(mol substrate^−1.
With `C` [methane] the “Efficiency of carbon conversion” value (Methylocystis strain SB2 [8]) was 12.3 (±0.5) %, the Growth yield (Methylocystis strain SB2 [8]) was 3.13 (±0.12) g cell dry weight ▪(mol substrate^−1 and the “OD600 reached (final / max OD600)” value (Methylocystis strain SB2 [2]) was 0.83. For the same compound, the growth rate (Methylocystis strain SB2 [2]) was 0.052 ± 0.004 h⁻¹, the “Efficiency of carbon conversion” value [10] was 13.2 (±0.698) % and the Growth yield [10] was 3.59 (±0.104) g cell dry weight ▪(mol substrate^−1. It also gave a specific growth rate (Methylocystis strain SB2 [11]) of 0.057 h⁻¹.
In the case of `NC(=O)CC[C@H](N)C(=O)O` [L-glutamine], the “utilization as nitrogen source” value (Methylocystis strain SB2 [1]) is reported as “able to utilize”.
For `C=CCl` [VC, vinyl chloride], the “Abiotic loss, %” value [5] is listed as 1.8%, the “Henry's constants” value [3] is listed as 1.262 and the “degradation … on ethanol” value (Methylocystis strain SB2 [4]) is listed as “degraded”. The “degradation … on methane” value (Methylocystis strain SB2 [4]) was “degraded” and the “% degraded” value [7] was 97%.
For `Cl/C=C/Cl` [t-DCE, trans-dichloroethylene], the “Abiotic loss, %” value [5] is listed as 0 (0) %, the “Henry's constants” value [3] is listed as 0.474 and the “degradation … on ethanol” value (Methylocystis strain SB2 [4]) is listed as “degraded”. The “degradation … on methane” value (Methylocystis strain SB2 [4]) was “degraded” and the “% degraded” value [7] was 98%.
For `ClCCl` [DCM, dichloromethane], the “Henry's constants” value [3] is listed as 0.125, the “degradation … on ethanol” value (Methylocystis strain SB2 [4]) is listed as “not” and the “degradation … on methane” value (Methylocystis strain SB2 [4]) is listed as “not”.
In the case of `N` [ammonium], the “utilization as nitrogen source” value (Methylocystis strain SB2 [1]) is reported as “able to utilize”.
For `ClC(Cl)Cl` [CF, chloroform], the “Henry's constants” value [3] is listed as 0.189, the “degradation … on ethanol” value (Methylocystis strain SB2 [4]) is listed as “not” and the “degradation … on methane” value (Methylocystis strain SB2 [4]) is listed as “degraded”.
For `O=C(O)[C@@H]1CCCN1` [L-proline], the “utilization as nitrogen source” value (Methylocystis strain SB2 [1]) was “able to utilize”.
With `CCO` [ethanol] the “OD600 reached (final / max OD600)” value (Methylocystis strain SB2 [2]) was 0.45, the growth rate (Methylocystis strain SB2 [2]) was 0.022 ± 0.002 h⁻¹ and the “growth on substrate as carbon source” value (Methylocystis strain SB2 [2]) was “grew”.
